US9346809B2 (LEO PHARMA A/S, priority 2009, dated 2016)
Read-outs that look alike come from different tables or passages of the source.

Assays:
Format in all cases: biochemical
[1] = target: T1, JAK1 (aa 850-1154, catalytic domain, GST-tag) (Homo sapiens, UniProt P23458); assay: JAK kinase assay (HTRF, phosphorylation of TK substrate-biotin), JAK1; conditions: ATP at Km (7 μM)
T1 construct: JAK1 (aa 850-1154) and TYK2 (aa 871-1187) are expressed with an N-terminally fused GST-tag; GST (N); purchased Carna Biosciences, Inc; host or cells: baculovirus expression system
Method: (§1) Human baculovirus-expressed JAK1, 2, 3 and TYK2 were purchased from Carna Biosciences, Inc. All four purified enzymes contain only the catalytic domain. JAK1 (aa 850-1154) and TYK2 (aa 871-1187) are expressed with an N-terminally fused GST-tag, and JAK2 and JAK3 with an N-terminally fused His-tag.
(§2) Inhibition of phosphorylation of a synthetic peptide was measured in an HTRF-based assay using the TK substrate-Biotin from the Cisbio HTRFKinEASE TK kit. First, 2 μl of TK solution (TK substrate-biotin in kinase buffer [1× enzymatic buffer from HTRFKinEASE TK kit, 1 mM DTT]) is added to a plate containing 1 μl prediluted compound (final assay concentration DMSO: 0.75%). Then, 5 μl kinase-ATP mix (prepared in kinase buffer) is added to the wells and the plates are incubated at RT for 20-30 min. For all four kinases a concentration of ATP that corresponded to the Km for ATP was used. The final concentrations of buffers, substrate, kinase and ATP were: JAK1: 50 mM Hepes buffer pH 7.0, 0.01% BSA, 10 mM MgCl2, 1 mM DTT, 7 μM ATP, 50 nM SEB, 1 μM TK Substrate-Biotin and 5 ng JAK1; JAK2: 50 mM Hepes buffer pH 7.0, 0.01% BSA, 5 mM MgCl2, 1 mM DTT, 4 μM ATP, 1 μM TK Substrate-Biotin and 0.1 ng JAK2; JAK3: 50 mM Hepes buffer pH 7.0, 0.01% BSA, 5 mM MgCl2, 1 mM DTT, 2 μM ATP, 1 μM TK Substrate-Biotin and 0.3 ng JAK3; TYK2: 50 mM Hepes buffer pH 7.0, 0.01% BSA, 5 mM MgCl2, 1 mM DTT, 13 μM ATP, 50 nM SEB, 1 μM TK Substrate-Biotin and 0.8 ng TYK2. Thereafter, the kinase reaction is stopped by adding 4 μl detection mix (final concentrations: 50 mM Hepes buffer pH 7.0, 0.01% BSA, 0.8 M KF, 20 mM EDTA, 42 nM Streptavidin-XL665 and 1:400 STK Ab Cryptate) and the plates are incubated overnight in the dark. The HTRF signal is read using an Envision plate reader.
(§3) In Table 1 selected JAK kinase inhibitory activities are listed with the following indicators: I: EC50<100 nM, II: 100 nM≦EC50≦500 nM and III: EC50>500 nM

[2] = target: T2, JAK2 (catalytic domain, His-tag) (Homo sapiens, UniProt O60674); assay: JAK kinase assay (HTRF, phosphorylation of TK substrate-biotin), JAK2; conditions: ATP at Km (4 μM)
T2 construct: All four purified enzymes contain only the catalytic domain; His (N); purchased Carna Biosciences, Inc; host or cells: baculovirus expression system
Method: as §1, §2, §3

[3] = target: T3, JAK3 (catalytic domain, His-tag) (Homo sapiens, UniProt P52333); assay: JAK kinase assay (HTRF, phosphorylation of TK substrate-biotin), JAK3; conditions: ATP at Km (2 μM)
T3 construct: All four purified enzymes contain only the catalytic domain; His (N); purchased Carna Biosciences, Inc; host or cells: baculovirus expression system
Method: as §1, §2, §3

[4] = target: T4, TYK2 (aa 871-1187, catalytic domain, GST-tag) (Homo sapiens, UniProt P29597); assay: JAK kinase assay (HTRF, phosphorylation of TK substrate-biotin), TYK2; conditions: ATP at Km (13 μM)
T4 construct: JAK1 (aa 850-1154) and TYK2 (aa 871-1187) are expressed with an N-terminally fused GST-tag; GST (N); purchased Carna Biosciences, Inc; host or cells: baculovirus expression system
T4 sequence (P29597 871-1187): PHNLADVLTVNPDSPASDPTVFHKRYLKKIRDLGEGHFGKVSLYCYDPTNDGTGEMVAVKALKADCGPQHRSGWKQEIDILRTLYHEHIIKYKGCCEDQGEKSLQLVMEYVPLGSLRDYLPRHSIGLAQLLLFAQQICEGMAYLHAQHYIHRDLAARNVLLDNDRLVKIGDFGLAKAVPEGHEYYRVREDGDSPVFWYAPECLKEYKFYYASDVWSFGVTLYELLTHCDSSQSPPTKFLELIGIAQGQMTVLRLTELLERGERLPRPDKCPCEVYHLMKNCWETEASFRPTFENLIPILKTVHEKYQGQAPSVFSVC
Method: as §1, §2, §3

[5] = read-out: JAK1 kinase inhibitory activity (EC50 indicator)
[6] = read-out: JAK2 kinase inhibitory activity (EC50 indicator)
[7] = read-out: JAK3 kinase inhibitory activity (EC50 indicator)
[8] = read-out: TYK2 kinase inhibitory activity (EC50 indicator)
[9] = HTRF assay, read-out: JAK1 kinase inhibitory activity (EC50 indicator)
[10] = HTRF assay, read-out: JAK2 kinase inhibitory activity (EC50 indicator)
[11] = HTRF assay, read-out: JAK3 kinase inhibitory activity (EC50 indicator)
[12] = HTRF assay, read-out: TYK2 kinase inhibitory activity (EC50 indicator)
[13] = HTRF assay, read-out: JAK1 kinase inhibitory activity (EC50)
[14] = HTRF assay, read-out: JAK2 kinase inhibitory activity (EC50)
[15] = HTRF assay, read-out: JAK3 kinase inhibitory activity (EC50)
[16] = HTRF assay, read-out: TYK2 kinase inhibitory activity (EC50)

T2 sequence (O60674 849-1124 limits assumed): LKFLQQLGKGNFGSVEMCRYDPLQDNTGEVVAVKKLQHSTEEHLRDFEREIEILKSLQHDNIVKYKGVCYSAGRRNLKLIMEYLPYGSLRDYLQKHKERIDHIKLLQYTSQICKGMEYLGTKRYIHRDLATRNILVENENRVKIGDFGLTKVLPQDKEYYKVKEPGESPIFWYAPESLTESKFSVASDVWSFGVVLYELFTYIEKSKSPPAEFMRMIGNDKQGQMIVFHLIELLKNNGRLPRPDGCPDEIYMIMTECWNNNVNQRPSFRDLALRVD
T1 sequence (P23458 850-1154): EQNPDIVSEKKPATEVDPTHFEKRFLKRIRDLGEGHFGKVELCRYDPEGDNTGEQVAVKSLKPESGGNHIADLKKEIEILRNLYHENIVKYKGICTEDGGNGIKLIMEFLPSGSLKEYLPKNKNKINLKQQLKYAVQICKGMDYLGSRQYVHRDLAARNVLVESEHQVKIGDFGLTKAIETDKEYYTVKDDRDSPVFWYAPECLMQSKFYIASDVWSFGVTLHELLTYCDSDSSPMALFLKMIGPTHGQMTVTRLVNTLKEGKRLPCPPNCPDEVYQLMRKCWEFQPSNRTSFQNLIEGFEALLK
T3 sequence (P52333 822-1111 limits assumed): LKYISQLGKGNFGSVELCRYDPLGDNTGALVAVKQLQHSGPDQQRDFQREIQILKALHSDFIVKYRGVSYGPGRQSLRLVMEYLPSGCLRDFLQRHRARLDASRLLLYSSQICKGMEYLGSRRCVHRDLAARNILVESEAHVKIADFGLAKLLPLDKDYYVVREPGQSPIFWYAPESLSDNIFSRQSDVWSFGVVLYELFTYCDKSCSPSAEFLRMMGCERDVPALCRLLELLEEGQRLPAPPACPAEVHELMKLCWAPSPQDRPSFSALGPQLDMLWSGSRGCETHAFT

Compound	EC50 [1, 5] [nM]	EC50 [2, 6] [nM]	EC50 [3, 7] [nM]	EC50 [4, 8] [nM]	EC50 [1, 9] [nM]	EC50 [2, 10] [nM]	EC50 [3, 11] [nM]	EC50 [4, 12] [nM]	also measured
O=C(NC1CCCCC1)N1[C@@H]2CC[C@H]1CN(c1ncnc3[nH]ccc13)C2 [Example 46, 3-(7H-Pyrrolo[2,3-d]pyrimidin-4-yl)-3,8-diaza-bicyclo[3.2.1]octane-8-carboxylic acid cyclohexylamide]	100 to 500	100 to 500	> 500	> 500					
N#Cc1ccc(C(=O)N2[C@@H]3CC[C@H]2CN(c2ncnc4[nH]ccc24)C3)s1 [Example 71, 5-[3-(7H-Pyrrolo[2,3-d]pyrimidin-4-yl)-3,8-diaza-bicyclo[3.2.1]octane-8-carbonyl]-thiophene-2-carbonitrile]	< 100	< 100	< 100	100 to 500					
O=C(CNc1ccccc1)N1CCN(c2ncnc3[nH]ccc23)CC12CC2 [Example 451, 2-Phenylamino-1-[7-(7H-pyrrolo[2,3-d]pyrimidin-4-yl)-4,7-diaza-spiro[2.5]oct-4-yl]-ethanone]									EC50 [1, 13]: < 100 nM; EC50 [2, 14]: < 100 nM; EC50 [3, 15]: 100 to 500 nM; EC50 [4, 16]: > 500 nM
O=C(c1cccc(O)n1)N1CCN(c2ncnc3[nH]ccc23)CC12CC2 [Example 166, (6-Hydroxy-pyridin-2-yl)-[7-(7H-pyrrolo[2,3-d]pyrimidin-4-yl)-4,7-diaza-spiro[2.5]oct-4-yl]-methanone]	< 100	< 100	100 to 500	> 500					
N#CCCC(=O)N1[C@@H]2CC[C@@H]1CN(c1ncnc3[nH]ccc13)C2 [Example 182, 4-Oxo-4-[3-(7H-pyrrolo[2,3-d]pyrimidin-4-yl)-3,8-diaza-bicyclo[3.2.1]oct-8-yl]-butyronitrile]	< 100	< 100	100 to 500	100 to 500					
CCCS(=O)(=O)N1[C@@H]2CC[C@H]1CN(c1ncnc3[nH]ccc13)C2 [Example 51, 4-[8-(Propane-1-sulfonyl)-3,8-diaza-bicyclo[3.2.1]oct-3-yl]-7H-pyrrolo[2,3-d]pyrimidine]	100 to 500	100 to 500	> 500	> 500					
Cc1ccc(S(=O)(=O)N2CCN(c3ncnc4[nH]ccc34)CC23CC3)cc1 [Example 439, 4-[4-(Toluene-4-sulfonyl)-4,7-diazaspiro[2.5]oct-7-yl]-7H-pyrrolo[2,3-d]pyrimidine]									EC50 [1, 13]: < 100 nM; EC50 [2, 14]: < 100 nM; EC50 [3, 15]: < 100 nM; EC50 [4, 16]: 100 to 500 nM
N#Cc1ccc(CC(=S)N2CCN(c3ncnc4[nH]ccc34)CC23CC3)cc1 [Example 441, 4-{2-[7-(7H-Pyrrolo[2,3-d]pyrimidin-4-yl)-4,7-diaza-spiro[2.5]oct-4-yl]-2-thioxo-ethyl}-benzonitrile]									EC50 [1, 13]: < 100 nM; EC50 [2, 14]: < 100 nM; EC50 [3, 15]: < 100 nM; EC50 [4, 16]: < 100 nM
O=C(O)C1(C(=O)N2CCN(c3ncnc4[nH]ccc34)CC23CC3)CC1 [Example 85, 1-[7-(7H-Pyrrolo[2,3-d]pyrimidin-4-yl)-4,7-diaza-spiro[2.5]octane-4-carbonyl]-cyclopropanecarboxylic acid]	> 500	100 to 500	> 500	> 500					
Cn1cc(S(N)(=O)=O)cc1C(=O)N1C2CCC1CN(c1ncnc3[nH]ccc13)C2 [Example 142, 1-Methyl-5-[3-(7H-pyrrolo[2,3-d]pyrimidin-4-yl)-3,8-diaza-bicyclo[3.2.1]octane-8-carbonyl]-1H-pyrrole-3-sulfonic acid amide]	< 100	< 100	< 100	100 to 500					

Continued, in another order:

EC50 [1, 5] [nM]	EC50 [2, 6] [nM]	EC50 [3, 7] [nM]	EC50 [4, 8] [nM]	EC50 [1, 9] [nM]	EC50 [2, 10] [nM]	EC50 [3, 11] [nM]	EC50 [4, 12] [nM]	Compound	also measured
				< 100	< 100	< 100	< 100	CNS(=O)(=O)c1csc(C(=O)N2CCN(c3ncnc4[nH]ccc34)CC23CC3)c1 [Example 373, 5-[7-(7H-Pyrrolo[2,3-d]pyrimidin-4-yl)-4,7-diaza-spiro[2.5]octane-4-carbonyl]-thiophene-3-sulfonic acid methylamide]	
				< 100	< 100	100 to 500	> 500	O=C(c1cnccn1)N1[C@@H]2CC[C@H]1CN(c1ncnc3[nH]ccc13)C2 [Example 421, Pyrazin-2-yl-[3-(7H-pyrrolo[2,3-d]pyrimidin-4-yl)-3,8-diaza-bicyclo[3.2.1]oct-8-yl]-methanone]	
				> 500	100 to 500	> 500	> 500	O=C(c1cnccn1)N1CCN(c2ncnc3[nH]cc(Cl)c23)CC12CC2 [Example 314, [7-(5-Chloro-7H-pyrrolo[2,3-d]pyrimidin-4-yl)-4,7-diaza-spiro[2.5]oct-4-yl]-pyrazin-2-yl-methanone]	
				< 100	< 100	< 100	> 500	Nc1nc(N2CCN(C(=O)Cc3ccc(C(F)(F)F)cc3)C3(CC3)C2)c2cc[nH]c2n1 [Example 309, 1-[7-(2-Amino-7H-pyrrolo[2,3-d]pyrimidin-4-yl)-4,7-diaza-spiro[2.5]oct-4-yl]-2-(4-trifluoromethyl-phenyl)-ethanone]	
				> 500	> 500	> 500	> 500	COC(=O)c1cc2c(N3CCN(C(=O)C4(C#N)CC4)C4(CC4)C3)ncnc2[nH]1 [Example 336, 4-[4-(1-Cyano-cyclopropanecarbonyl)-4,7-diaza-spiro[2.5]oct-7-yl]-7H-pyrrolo[2,3-d]pyrimidine-6-carboxylic acid methyl ester]	
				100 to 500	100 to 500	100 to 500	> 500	N#CCc1cccc(CC(=O)N2CCN(c3nc(N)nc4[nH]ccc34)CC23CC3)c1 [Example 306, (3-{2-[7-(2-Amino-7H-pyrrolo[2,3-d]pyrimidin-4-yl)-4,7-diaza-spiro[2.5]oct-4-yl]-2-oxo-ethyl}-phenyl)-acetonitrile]	
				< 100	< 100	< 100	< 100	COc1csc(C(=O)N2CCN(c3ncnc4[nH]ccc34)CC23CC3)c1 [Example 386, (4-Methoxy-thiophen-2-yl)-[7-(7H-pyrrolo[2,3-d]pyrimidin-4-yl)-4,7-diaza-spiro[2.5]oct-4-yl]-methanone]	
				> 500	> 500	> 500	> 500	Cc1c[nH]c2ncnc(N3CCN(C(=O)c4cnccn4)C4(CC4)C3)c12 [Example 326, [7-(5-Methyl-7H-pyrrolo[2,3-d]pyrimidin-4-yl)-4,7-diaza-spiro[2.5]oct-4-yl]-pyrazin-2-yl-methanone]	
